“Also recorded” adds a separate entry of the source.
Columns and labels:
[1] = system: palmitate and LPS stimulated macrophages; assay: Cytokine production in palmitate and LPS stimulated macrophages; format: cell-based
[2] = system: AMPK; assay: AMPK Western blot in RAW 264.7 macrophages stimulated with palmitate and LPS; format: cell-based, murine; conditions: RAW 264.7, 1 mM I3A pre-treatment
[3] = system: Western diet (WD) fed mice; assay: Western diet mouse model of diet-induced fatty liver disease: serum ALT, liver TG, histology, body weight; format: in vivo, mice (male B6 129SF1/J)
Description: Study design. The overall objective of the study was to investigate if […] can alleviate diet induced liver steatosis and inflammation in vivo. These NAFLD features were induced in mice by feeding the animals a WD and SW for 8 weeks. The drinking water for these mice was then supplemented with low and high doses of […], while continuing the WD for another 8 weeks. The phenotypic changes were assessed by measuring body weight gain, serum ALT, hepatic inflammatory cytokines, and histopathological examination of liver tissue. To investigate potential mechanisms of action, a series of omics analyses were performed on fecal material (metagenomics and metabolomics) and liver tissue (metabolomics and proteomics). To determine cell-type specific signaling mediating […] effects in macrophages, an in vitro cell culture model was used. The histopathological scoring of liver sections was blinded; all other analyses were not blinded. Sample processing and statistical analysis were performed concurrently on treatment and control groups using identical methods. Animal experiments. Male B6 129SF1/J mice at 6 weeks of age were obtained from Jackson Laboratories (Bar Harbor, ME). Mice were acclimatized to the animal facility for one week. At the start of the experiment, mice were randomly divided into four groups (n=10 for each group). Three of the four groups were fed ad libitum a Western diet (WD) with 40% Kcal from fat and containing 0.15% cholesterol (D12079B, Research Diets) and a sugar water (SW) solution (23.1 g/L d-fructose+18.9 g/L d-glucose) as previously described (DIAMOND model (15)). After 8 weeks, the three groups of WD-fed mice were randomly selected for treatment with vehicle (WD group) or low (WD-50 group) or high dose (WD-100 group) of […]. The WD group was fed WD and drank sugar water. The WD-50 and WD-100 groups were fed WD and drank sugar water containing, respectively, 50 or 100 mg […] per kg body weight. The treatments were continued for another 8 weeks. Water bottles containing SW and […] or only SW were changed every other day. A fourth group of mice was fed a low-fat control diet (D12450B, Research Diets) and normal water for 16 weeks (CN group) (FIG. 9A). FIG. 9A presents the study design. Mice belonging to the same treatment group were housed together (5 mice/cage). Mice were maintained on 12:12-h light-dark cycles. All procedures were performed in accordance with Texas A&M University Health Sciences Center Institutional Animal Care and Use Committee guidelines under an approved animal use protocol (AUP #2017-0145). Sample collection. Fecal pellets were collected every other week prior to […] treatment, right before […] treatment, every week during […] treatment, and on the last day of the experiments (FIG. 9B). FIG. 9B presents the sampling scheme. All fecal pellets were flash frozen in liquid nitrogen after collection. Blood samples from the submandibular vein were taken right prior to […] treatment, every other week during […] treatment and on the last day of the experiments. The blood samples were centrifuged at 4,000 g for 15 min at 4° C. to obtain serum. At the end of the experiment, the mice were sacrificed by euthanasia. The liver was quickly excised and rinsed with 10× volume of ice-cold PBS. The right medium lobe of the liver was fixed in 10% neutral formalin for histological analysis. A small piece from right lateral lobe was stored in RNAlater (Sigma Aldrich, St. Louis, MO) using the manufacturer's protocol. The remaining liver tissue samples were flash frozen in liquid nitrogen, homogenized in HPLC-grade water, lyophilized to a dry powder, and stored at -80° C. until further processing. Histological analysis. Formalin fixed liver were embedded in paraffin, sectioned (5 μm) and stained with hematoxylin and eosin (H&E) through VWR histological services (Radnor, PA). Liver histology sections were evaluated by an expert pathologist at Texas A&M University who was blinded to the treatment conditions. […]

[4] = system: inflammatory cytokines in liver tissue; assay: Liver cytokine measurements (bead-based 13-cytokine panel) in WD mice; format: in vivo, mice (male B6 129SF1/J); conditions: week 16
Description: Animal experiments. Male B6 129SF1/J mice at 6 weeks of age were obtained from Jackson Laboratories (Bar Harbor, ME). Mice were acclimatized to the animal facility for one week. At the start of the experiment, mice were randomly divided into four groups (n=10 for each group). Three of the four groups were fed ad libitum a Western diet (WD) with 40% Kcal from fat and containing 0.15% cholesterol (D12079B, Research Diets) and a sugar water (SW) solution (23.1 g/L d-fructose+18.9 g/L d-glucose) as previously described (DIAMOND model (15)). After 8 weeks, the three groups of WD-fed mice were randomly selected for treatment with vehicle (WD group) or low (WD-50 group) or high dose (WD-100 group) of […]. The WD group was fed WD and drank sugar water. The WD-50 and WD-100 groups were fed WD and drank sugar water containing, respectively, 50 or 100 mg […] per kg body weight. The treatments were continued for another 8 weeks. Water bottles containing SW and […] or only SW were changed every other day. […] The supernatant was transferred into a new tube and the total protein concentration was measured with the BCA protein assay (Thermo Fisher Scientific, Waltham, MA). A panel of 13 cytokines was quantified with a bead-based ELISA kit (BioLegend, San Diego, CA) following the manufacturer's protocol. […]

[5] = system: hepatocytes; assay: Cultured hepatocytes (lipid droplet loaded, TNF-α; Fasn/SREBP-1c expression); format: cell-based
[6] = week 16, dose-dependent, WD-50 and WD-100 vs WD

Q: `O=C([O-])Cc1c[nH]c2ccccc12.[Na+]` [I3A, Indole-3-acetate sodium salt] was tested. Which “production of TNF-α, IL-1β, and MCP-1” value [1] did it give?
A: dose-dependently attenuated the production of TNF-α, IL-1β, and MCP-1

Q: What about the p-AMPK level [2] of the same molecule?
A: upregulated p-AMPK to baseline levels

Q: What about the “total AMPK level” value [2] of the same molecule?
A: without altering total AMPK

Q: What about the “protection against steatosis and immune cell infiltration in livers” value ([3]; I3A up to 100 mg/kg body wt. in drinking water, 16 weeks WD, B6/129 mice) of the same molecule?
A: dose-dependently protected against these injuries

Q: What about the “serum alanine aminotransferase (ALT) levels” value ([3]; high dose I3A (WD-100, 100 mg/kg in drinking water) vs WD, week 10 and beyond) of the same molecule?
A: significantly reduced serum ALT levels

Q: What about the body weight increase ([3]; normalized to week 8 body weight, I3A treated vs WD) of the same molecule?
A: slowed the weight increase

Q: What about the “liver TG” value ([3]; week 16, WD-50 and WD-100 vs WD) of the same molecule?
A: reduced liver TG in a dose-dependent manner

Q: And the “hepatocyte ballooning (H&E histology score)” value [3, 6]?
A: improved

Q: And the “liver steatosis (H&E histology score)” value [3, 6]?
A: improved

Q: And the “lobular inflammation (H&E histology score)” value [3, 6]?
A: improved

Q: And the “liver IL-10” value ([4]; I3A treated vs WD)?
A: downregulated this cytokine

Q: And the “expression of pro-inflammatory cytokines in liver (panel, TNFα, IL-6, Mcp-1 etc.)” value ([4]; WD-50 and WD-100 vs WD, sodium salt)?
A: dose-dependently attenuated the production of type 1, 2 and 3 cytokines; also recorded: reduced the expression of these cytokines in a dose-dependent manner

Q: And the “TNF-α induced production of saturated free fatty acids” value ([5]; cultured hepatocytes loaded with lipid droplets (mimicking steatosis), AhR dependent)?
A: abrogated TNF-α induced production of saturated free fatty acids

Q: What about the “expression of Fasn and SREBP-1c” value ([5]; hepatocytes, AhR dependent manner) of the same molecule?
A: decreased the expression of Fasn and its transcriptional regulator SREBP-1c

From US20240189279A1, “IMMUNOMODULATORY COMPOSITIONS AND METHODS OF USE THEREOF” (THE TEXAS A&M UNIVERSITY SYSTEM, priority 2022, published 2024)
